Assay results published in US12144864B2, “Tubulysins and protein-tubulysin conjugates” (Regeneron Pharmaceuticals, Inc., priority 2018, dated 2024).
Several values for one entry are separate records, joined by “and”; a condition that tells them apart may be missing. Equal values may be shown once. Read-outs that look alike come from different tables or passages of the source. Non-standard residues stand in square brackets, D forms with d. Residues, ends and D or L forms follow the SMILES beside them. *: point of attachment. Dolaproine = CO[C@@H]([C@@H]1CCCN1)[C@@H](C)C(=O)O; Dil = CC[C@H](C)[C@H](NC)[C@@H](CC(=O)O)OC; X1 = C[C@@H](N*)[C@@H](O)c1ccccc1; NMeV = CN[C@H](C(=O)O)C(C)C

What was measured:
C4-2 cells [1] = test: Cell-based killing assay of payloads (CellTiter-Glo), C4-2 cells; design: species or system human; details: 5-day incubation; for IC50: average ± SD where replicates; for C4-2 % Kill: at maximum concentration tested (100 − % viable cells)
Procedure, shortened: (§1)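 Cells plated at 4000/well in line-specific complete medium, grown overnight, then exposed to 1:3 serial dilutions of payload (100 nM to […]) for 5 days. ATP-based CellTiter-Glo luminescence read; IC50 from four-parameter logistic 10-point fit, and % kill at top concentration as 100 − % viable.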

HCT15 cells = test: cells; type: cell-based, human; details: for HCT-15 + verapamil % Kill / IC50 / HCT-15 % Kill: HCT15 cells; for HCT-15 + verapamil % Kill / HCT-15 % Kill: maximum % cell killing
Procedure, shortened: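 HCT15 colorectal carcinoma cells, 1000 per well in RPMI/10% FBS, with or without 5 ug/mL verapamil, exposed to 1:3 serially diluted payloads for 5 days at 37 °C. Viability measured by CellTiter-Glo ATP luminescence; IC50 from four-parameter logistic fit of a 10-point curve, % kill at top concentration.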

HL60/MX2 cells = test: Cytotoxicity in panel of MDR cell lines, HL60/MX2 (72 h and 144 h); type: cell-based, human
Procedure, shortened: (§2)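 Luminescent ATP readout (CellTiter-Glo) quantified viable cells after 72 h or 144 h exposure to 1:3 serial payload dilutions. Cells plated at 1000/well in their normal growth media. IC50 in M from a four-parameter logistic fit; % kill at top concentration taken as 100 − % viable.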

MES-SA/MX2 cells = test: Cytotoxicity in panel of MDR cell lines, MES-SA/MX2 (72 h and 144 h); type: cell-based, human
Procedure, shortened: as §2

HCT-15 cells = test: Cytotoxicity in panel of MDR cell lines, HCT-15 (72 h and 144 h); type: cell-based, human
Procedure, shortened: as §2

H69AR cells = test: Cytotoxicity in panel of MDR cell lines, H69AR (72 h and 144 h); type: cell-based, human
Procedure, shortened: as §2

C4-2 cells [2] = test: Cytotoxicity of anti-STEAP2 ADCs, payloads and reference compounds in C4-2 cells; type: cell-based, human
Protocol: To test the ability of the disclosed tubulysin payloads to kill human cell lines, an in vitro cytotoxicity assay was performed. In vitro cytotoxicity of the disclosed payloads, as well as reference compounds, were evaluated using the CellTiter-Glo Assay Kit (Promega, Cat #G7573), in which the quantity of ATP present is used to determine the number of viable cells in culture. For the assay, C4-2, HEK293, or T47D cells were seeded at 4000 cells/well on Nunclon white 96-well plates in complete growth medium (DME high glucose:Ham's F12 at 4:1, 10% FBS, 100 units/ml Penicillin, 100 ug/ml streptomycin, 53 ug/ml glutatmine, 10 ug/ml insulin, 220 ng/ml biotin, 12.5 pg/ml T3, 12.5 ug/ml Adenine, 4 ug/ml transferrin for C42 cells; DME high glucose, 10% FBS, 100 units/ml Penicillin, 100 ug/ml streptomycin, 53 ug/ml glutatmine for HEK293; RPMI, 10% FBS, 100 units/ml Penicillin, 100 ug/ml streptomycin, 53 ug/ml glutatmine, 10 ug/ml insulin, 10 mM HEPEs, 200 nM Sodium Pyruvate for T47D cells) and grown overnight at 37° C. in 5% CO2. For cell viability curves, 1:3 serially diluted payloads were added to the cells at final concentrations ranging from 100 nM to […], including a no treatment control group, and were then incubated for 5 days. After the 5-day incubation, cells were incubated at room temperature with 100 μL of CellTiter-Glo reagents for 10 minutes. Relative luminescence units (RLU) were determined on a Victor plate reader (PerkinElmer). The IC50 values were determined from a four-parameter logistic equation over a 10-point response curve (GraphPad Prism). All IC50 values are expressed in molar (M) concentration. The percent cell killing (% kill) at the maximum concentration tested was estimated from the following formula (100−% viable cells). Averages±standard deviation (SD) are included where replicate experiments were performed.
To further test the ability of the disclosed tubulysin payloads, reference compounds, and antibody drug conjugates using these payloads, a cytotoxicity assay was performed using C4-2 cells as described in this example (see above). For these studies, anti-STEAP2 antibodies were conjugated to select tubulysins payloads, and the compounds were tested at concentrations starting at 100 nM with 3-fold serial dilution. All IC50 values are expressed in nM concentration and the percent cell killing at the maximum concentration tested was estimated from the following formula (100−% viable cells).

T47D cells = test: Cell-based killing assay of payloads (CellTiter-Glo), T47D cells; design: species or system human; details: 5-day incubation; for IC50: Homo sapiens, T47D, 120 h; for T47D % Kill: at maximum concentration tested
Procedure, shortened: as §1

HEK293 cells = test: Cell-based killing assay of payloads (CellTiter-Glo), HEK293 cells; design: species or system human; details: 5-day incubation; for IC50: Homo sapiens, HEK293, 120 h; for HEK293 % Kill: at maximum concentration tested
Procedure, shortened: as §1

[3] = with 5 ug/mL Verapamil, read-out: HCT-15 + verapamil IC50
[4] = Homo sapiens, HCT-15, without Verapamil, read-out: HCT-15 IC50
[5] = Homo sapiens, 72 h incubation, read-out: HL60/MX2 IC50 72 h
[6] = Homo sapiens, 144 h incubation, read-out: HL60/MX2 IC50 144 h
[7] = Homo sapiens, 72 h incubation, read-out: MES-SA/MX2 IC50 72 h
[8] = Homo sapiens, 144 h incubation, read-out: MES-SA/MX2 IC50 144 h
[9] = Homo sapiens, 72 h incubation, read-out: HCT-15 IC50 72 h
[10] = Homo sapiens, 144 h incubation, read-out: HCT-15 IC50 144 h
[11] = Homo sapiens, 72 h incubation, read-out: H69AR IC50 72 h
[12] = Homo sapiens, 144 h incubation, read-out: H69AR IC50 144 h

Compound	C4-2 % Kill (C4-2 cells [1])	HCT-15 + verapamil % Kill (HCT15 cells; with 5 ug/mL Verapamil)	IC50 (HCT15 cells; [3])	HCT-15 % Kill (HCT15 cells; without Verapamil)	HL60/MX2 % Kill 72 h (HL60/MX2 cells; 72 h incubation)	HL60/MX2 % Kill 144 h (HL60/MX2 cells; 144 h incubation)	MES-SA/MX2 % Kill 72 h (MES-SA/MX2 cells; 72 h incubation)	MES-SA/MX2 % Kill 144 h (MES-SA/MX2 cells; 144 h incubation)	HCT-15 % Kill 72 h (HCT-15 cells; 72 h incubation)	H69AR % Kill 72 h (H69AR cells; 72 h incubation)	H69AR % Kill 144 h (H69AR cells; 144 h incubation)	IC50 (C4-2 cells [1]; Homo sapiens, C4-2, 120 h)	IC50 (T47D cells)	T47D % Kill (T47D cells)	IC50 (HEK293 cells)	HEK293 % Kill (HEK293 cells)	IC50 (HCT15 cells; [4])	IC50 (HL60/MX2 cells; [5])	IC50 (HL60/MX2 cells; [6])	IC50 (MES-SA/MX2 cells; [7])	other results
CC[C@H](C)[C@@H]([C@@H](CC(=O)N1CCC[C@H]1[C@H](OC)[C@@H](C)C(=O)N[C@H](C)[C@@H](O)c1ccccc1)OC)N(C)C(=O)[C@@H](NC(=O)[C@@H](NC)C(C)C)C(C)C [MMAE, Monomethyl auristatin E, reference compound] (H-[NMeV]V[Dil][Dolaproine]-X1)	93.7% and 93.7 ± 2.5%	98.4 ± 0.5%	0.782 nM	97.1 ± 3.7%	88.7%	99.6%	65.6%	58.1%	93.7%	66.8%	92.7%	–	–	–	–	–	–	–	–	–	IC50 (C4-2 cells [1]): 0.287 nM; IC50 (HCT15 cells; without Verapamil, read-out: HCT-15 IC50): 17.7 nM; HCT-15 IC50/HCT-15+Verapamil IC50 ratio (HCT15 cells; IC50 without Verapamil divided by IC50 with Verapamil): 23.7; HCT15 IC50/HCT-15 + Verapamil IC50 (HCT15 cells; ratio of IC50 without Verapamil to IC50 with Verapamil): 23.7 ± 12.0; IC50 (HL60/MX2 cells; 72 h incubation, read-out: HL60/MX2 IC50 72 h): 0.418 nM; IC50 (HL60/MX2 cells; 144 h incubation, read-out: HL60/MX2 IC50 144 h): 0.164 nM; IC50 (MES-SA/MX2 cells; 72 h incubation, read-out: MES-SA/MX2 IC50 72 h): 37.3 nM; IC50 (MES-SA/MX2 cells; 144 h incubation, read-out: MES-SA/MX2 IC50 144 h): 0.683 nM; IC50 (HCT-15 cells; 72 h incubation, read-out: HCT-15 IC50 72 h): 16.8 nM; IC50 (H69AR cells; 72 h incubation, read-out: H69AR IC50 72 h): 0.923 nM; IC50 (H69AR cells; 144 h incubation, read-out: H69AR IC50 144 h): 0.683 nM; % kill (C4-2 cells [2]; at maximum concentration tested): 99%; IC50 (C4-2 cells [2]; top concentration 100 nM, 3-fold serial dilution): 0.22 nM
C#CCCCON(C(=O)[C@@H](NC(=O)[C@H]1CCCCN1C)[C@@H](C)CC)[C@H](C[C@@H](OC(C)=O)c1nc(C(=O)N[C@@H](Cc2ccc(O)cc2)C[C@H](C)C(=O)O)cs1)C(C)C [Vg, (2S,4R)-4-({2-[(1R,3R)-1-(Acetyloxy)-4-methyl-3-[(2S,3S)-3-methyl-2-{[(2R)-1-methylpiperidin-2-yl]formamido}-N-(pent-4-yn-1-yloxy)pentanamido]pentyl]-1,3-thiazol-4-yl}formamido)-5-(4-hydroxyphenyl)-2-methylpentanoic acid]	93.2%	98%	0.237 nM	94.9%	98%	99.9%	98%	99.8%	97.6%	94.2%	98.4%	0.369 nM	0.535 nM	65.2%	0.7 nM	86.4%	0.53 nM	0.131 nM	0.061 nM	3.54 nM	IC50 (MES-SA/MX2 cells; [8]): 5.3 nM; HCT-15 % Kill 144 h (HCT-15 cells; 144 h incubation): 99.5%; IC50 (HCT-15 cells; [9]): 0.68 nM; IC50 (HCT-15 cells; [10]): 0.916 nM; IC50 (H69AR cells; [11]): 2.13 nM; IC50 (H69AR cells; [12]): 2.72 nM
C#CCCCON(C(=O)[C@@H](NC(=O)[C@H]1CCCCN1C)[C@@H](C)CC)[C@H](C[C@@H](OC(C)=O)c1nc(C(=O)N[C@@H](Cc2ccc(N)cc2)C[C@H](C)C(=O)O)cs1)C(C)C [Vh, (2S,4R)-4-({2-[(1R,3R)-1-(Acetyloxy)-4-methyl-3-[(2S,3S)-3-methyl-2-{[(2R)-1-methylpiperidin-2-yl]formamido}-N-(pent-4-yn-1-yloxy)pentanamido]pentyl]-1,3-thiazol-4-yl}formamido)-5-(4-aminophenyl)-2-methylpentanoic acid]	92%	98.1%	0.587 nM	97.7%	97.5%	99.9%	98.4%	99.8%	97%	93.7%	98.4%	0.509 nM	0.458 nM	64.5%	0.718 nM	85.6%	1.47 nM	0.173 nM	< 0.015 nM	2.98 nM	IC50 (MES-SA/MX2 cells; [8]): 8.15 nM; HCT-15 % Kill 144 h (HCT-15 cells; 144 h incubation): 99.6%; IC50 (HCT-15 cells; [9]): 0.871 nM; IC50 (HCT-15 cells; [10]): 1.27 nM; IC50 (H69AR cells; [11]): 2.59 nM; IC50 (H69AR cells; [12]): 4.21 nM
